Activity and Km data for five molecules are collected here from ChEMBL document CHEMBL2073935, “Cloning and functional characterization of a rat renal organic cation transporter isoform (rOCT1A)” (J Biol Chem, 1997).

Series [1] addresses T1, Solute carrier family 22 member 1 (Rattus norvegicus, UniProt Q63089).
T1 sequence (Q63089 whole entry): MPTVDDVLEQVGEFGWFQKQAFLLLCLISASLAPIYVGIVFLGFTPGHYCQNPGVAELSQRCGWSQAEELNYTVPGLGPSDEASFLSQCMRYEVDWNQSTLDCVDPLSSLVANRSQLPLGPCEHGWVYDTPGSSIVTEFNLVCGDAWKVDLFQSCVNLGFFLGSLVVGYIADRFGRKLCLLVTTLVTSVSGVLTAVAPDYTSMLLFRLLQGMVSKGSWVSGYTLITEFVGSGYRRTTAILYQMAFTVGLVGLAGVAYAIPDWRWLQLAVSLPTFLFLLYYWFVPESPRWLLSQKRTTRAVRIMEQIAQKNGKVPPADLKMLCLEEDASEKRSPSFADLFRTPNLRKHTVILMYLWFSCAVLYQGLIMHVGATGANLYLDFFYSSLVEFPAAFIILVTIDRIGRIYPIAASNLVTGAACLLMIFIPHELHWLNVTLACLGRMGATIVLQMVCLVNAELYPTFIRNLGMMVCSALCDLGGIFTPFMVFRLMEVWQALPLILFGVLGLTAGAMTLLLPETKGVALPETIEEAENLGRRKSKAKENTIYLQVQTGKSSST
Briefly: TP_TRANSPORTER: inhibition of TEA uptake (TEA: 500 uM, Guanidine: 5000 uM) in OCT1A expressing Xenopus laevis oocytes. The note with it: oocyte. Type of series: functional, cell-based.

The target in series [2] is T1, Solute carrier family 22 member 1. Briefly: TP_TRANSPORTER: inhibition of TEA uptake (TEA: 500 uM, Procainamide: 5000 uM) in OCT1A expressing Xenopus laevis oocytes. Format: functional, cell-based. The conditions noted are these: oocyte.
Series [3] shares this target. The series is described as follows: TP_TRANSPORTER: inhibition of TEA uptake (basolateral to cell) (TEA: 500 uM, NMN: 5000 uM) in OCT1A expressing Xenopus laevis oocytes. Format: functional, cell-based. The conditions noted are these: oocyte.
Series [4] shares this target. The series is described as follows: TP_TRANSPORTER: inhibition of TEA uptake (TEA: 500 uM, PAH: 5000 uM) in OCT1A expressing Xenopus laevis oocytes. Type of series: functional, cell-based. The note with it: oocyte.
Substrate in series [5]: CC[N+](CC)(CC)CC
The series is described as follows: cells, lysate or membranes named.

Consider `N=C(N)N` [GUANIDINE], for which, in series [1], the Activity result is “inhibitor [+]”.
Regarding `CCN(CC)CCNC(=O)c1ccc(N)cc1` [PROCAINAMIDE], the Activity entry in series [2] is “inhibitor [+]”.
With `CNC(=O)c1cccnc1` [NICOTINYL METHYLAMIDE], the Activity result in series [3] is “inhibitor [+]”.
Consider `Nc1ccc(C(=O)NCC(=O)O)cc1` [AMINOHIPPURIC ACID], for which, in series [4], the Activity result was “inhibitor [+]”.

B1: Solute carrier family 22 member 1 (Rattus norvegicus) (protein)
chain: T1 sequence (Q63089 whole entry)
For B1, in series [5], the Km came out at 42 µM.

A word on the Km: it is the substrate concentration at which the rate is half of its maximum.
